Source: PMC4501119, “Cholestenoic acid, an endogenous cholesterol metabolite, is a potent γ-secretase modulator” (Molecular Neurodegeneration, 2015)
Where two headings read alike, the source gives them in different places.

Key:
[1] = tested on: Aβ42 in CHO-2B7 cells (CHO cells stably overexpressing APP695); assay: Cell-based Aβ sandwich ELISA of conditioned media from CHO-2B7 cells treated 16 h; design: species or system Chinese hamster; details: for GSM activity: dose dependent studies; for GSM activity / fold less potent than CA 2a (Aβ42 EC50): CHO-2B7 cells
Protocol: Chinese hamster ovary (CHO) cells stably overexpressing APP695 (CHO-2B7 cells) were grown in Ham’s F-12 medium (Life Technologies) supplemented with 10 % fetal bovine serum and 100 units/ml of penicillin and 100 μg/ml streptomycin. Cells were grown at 37 °C in a humidified atmosphere containing 5 % CO2 in tissue culture plates (Costar). The cells were harvested at confluence and then utilized for biochemical analyses. Compounds were dissolved in dimethyl sulfoxide (DMSO) and screened in CHO-2B7 cells. The cells were incubated for 16 h in the presence of the compound diluted into OptiMEM-reduced serum medium (Life Technologies, Carlsbad, CA, USA) containing 1 % fetal bovine serum.
Monoclonal antibodies to Aβ were generated by the Mayo Clinic Immunology Core facilities (Jacksonville, FL, USA). Ab5 recognizes an epitope in the amino terminus of Aβ (Aβ1-16), recognizes both monomeric and aggregated Aβ, and is human specific. […] Ab 2.1.3 was raised against Aβ35-42 and is specific for Aβx-42. […] Total Aβ level was determined by capture with Ab5 and detected with horseradish peroxidase (HRP)-conjugated 4G8 (a monoclonal antibody against Aβ17-24; Covance, Waltham, MA, USA) with the other Aβ peptides detected with HRP-conjugated Ab5. For the cell-free assay and measuring mouse endogenous Aβ, HRP-conjugated 4G8 was used as the secondary detection antibody. Aβ standards (Bachem, King of Prussia, PA, USA) were prepared by dissolving in hexafluoroisopropanol (HFIP) at 1 mg/ml with sonication, dried under nitrogen, resuspended at 2 mg/ml HFIP, sonicated again and dried under nitrogen. The resulting Aβ was resuspended in 0.01 % ammonium hydroxide, portioned into aliquots in EC buffer, and frozen at −80 °C.

Aβ42 = details: cited from earlier work; for GSM activity: endogenous bile acids
[2] = tested on: brain mAβ42, mAβ38 and total mAβ; assay: Brain Aβ levels after intraperitoneal injection in wild type mice; format: in vivo, mouse (C57BL/6 or CF-1); details: 30 mg/kg IP, brains harvested after 30 min, 1, 2 and 3 h
Protocol: 25(R)-CA powder was initially dissolved in DMSO (<4.5 % in the final mixture) and then combined with polyethylene glycol (15)-hydroxystearate (Solutol), ethanol, and water at a ratio of (15:10:75). One molar equivalent of sodium hydroxide was added to the mixture. We performed CA intraperitoneal (IP) injections to wild-type mice (C57BL/6 or CF-1). The mice were injected with 25(R)-CA on the right side of the abdomen. The injections have been performed with various time points (30 min, 1 h, 2 h, and 3 h) and with multiple doses (30 mg per kg (mg/kg), 60 mg/kg, 75 mg/kg and 100 mg/kg). The number of each cohort is 6–8. We used 30 mg/kg of CA for the time-course experiments, and for the dose–response experiments the end-point was set at 30 min. The brains and serum are harvested and frozen for brain Aβ extraction.
The mouse brains were harvested at the age of 3 months. The brains were weighed and recorded. The Diethylamine/Sodium Chloride (DEA/NaCl) extraction buffer (0.4 % DEA) was added to each sample and homogenized using a sonicator. The samples were transferred to a poly-carbonate centrifuge tube and spun down at 50,000xg for 30 min at 4 °C. The supernatant was loaded on the vacuum manifold with the appropriate number of HLB Oasis columns. The samples were loaded on the conditioned column, filtered, and eluted using prepared elution buffer (90 % Methanol, 2 % NH4OH). The eluates are concentrated using the Thermo-Savant SpeedVac concentrator for a minimum of 2 h at 55 °C with radiant heat. The concentrated samples are reconstituted in a blocking buffer (0.67 % Bovine serum albumin (BSA)) at the appropriate volume.
Monoclonal antibodies to Aβ were generated by the Mayo Clinic Immunology Core facilities (Jacksonville, FL, USA). […] Total Aβ level was determined by capture with Ab5 and detected with horseradish peroxidase (HRP)-conjugated 4G8 (a monoclonal antibody against Aβ17-24; Covance, Waltham, MA, USA) with the other Aβ peptides detected with HRP-conjugated Ab5. […] Following these steps, the Aβ is monomeric, as determined by size-exclusion chromatography.

[3] = tested on: endogenous mouse Aβ (mAβ) in primary neuron-glia cultures; assay: Primary mixed neuron-glia culture, endogenous mouse Aβ ELISA; format: cell-based
Protocol: Primary mixed neuron-glia cultures were prepared from postnatal day 0 (P0) C3HBL/6 mouse brains (Harlan Labs). Cerebral cortices were dissected from P0 mouse brains and were dissociated in 2 mg/ml papain (Worthington) and 50 μg/mL DNAse I (Sigma) at 37 °C for 20 min. They were then washed three times in sterile Hank’s balanced salt solution (HBSS) to inactivate the papain and switched to 5 % fetal bovine serume (HyClone) in Neurobasal-A growth media (Gibco), which includes 0.5 mM L-glutamine (Gibco), 0.5 mM GlutaMax (Life Technologies), 0.01 % antibiotic-antimycotic (Gibco), and 0.02 % SM1 supplement (Stemcell). The tissue mixture was then triturated three times using a 5 mL pipette followed by a Pasteur pipette, and strained through a 70 μm cell strainer. The cell mixture was then centrifuged at 200xg for 3 min, and re-suspended in fresh Neurobasal-A media. They were then plated onto poly-D-lysine coated 96well plates at 100,000 cells/well. Cells were maintained in the Neurobasal-A growth media mentioned above without fetal bovine serum (FBS) at 37 °C in a humidified 5 % CO2 chamber.
(§1) Monoclonal antibodies to Aβ were generated by the Mayo Clinic Immunology Core facilities (Jacksonville, FL, USA). Ab5 recognizes an epitope in the amino terminus of Aβ (Aβ1-16), recognizes both monomeric and aggregated Aβ, and is human specific. […] Ab 2.1.3 was raised against Aβ35-42 and is specific for Aβx-42. […] For cell-based screens, Aβ was captured from conditioned medium with either Ab5, Ab38, Ab13.1.1, or Ab2.1.3 (coated at 10-50 μg/ml in EC buffer: 5 mM NaH2PO4-H2O, 20 mM Na2HPO4, 400 mM NaCl, 2.5 mM EDTA-full name, 151.5 μM BSA, 813 μM CHAPS, and 7.7 mM NaN3) on Immulon 4HBX Flat-Bottom Microfilter 96-well plates (Thermo Scientific, Waltham, MA, USA). Total Aβ level was determined by capture with Ab5 and detected with horseradish peroxidase (HRP)-conjugated 4G8 (a monoclonal antibody against Aβ17-24; Covance, Waltham, MA, USA) with the other Aβ peptides detected with HRP-conjugated Ab5. For the cell-free assay and measuring mouse endogenous Aβ, HRP-conjugated 4G8 was used as the secondary detection antibody. Aβ standards (Bachem, King of Prussia, PA, USA) were prepared by dissolving in hexafluoroisopropanol (HFIP) at 1 mg/ml with sonication, dried under nitrogen, resuspended at 2 mg/ml HFIP, sonicated again and dried under nitrogen. The resulting Aβ was resuspended in 0.01 % ammonium hydroxide, portioned into aliquots in EC buffer, and frozen at −80 °C. Following these steps, the Aβ is monomeric, as determined by size-exclusion chromatography.

γ-secretase = biological target: T1, γ-secretase (Homo sapiens, UniProt P49768); assay: In vitro γ-secretase (broken cell) assay, membranes of H4 neuroglioma cells overexpressing APP695wt, Aβ ELISA; format: biochemical; details: vs DMSO control, 2 h incubation
T1 construct: The membrane derived from the H4 neuroglioma cells overexpressing APP695wt were prepared by carbonate extraction; endogenous in cells; host or cells: H4 neuroglioma cells overexpressing APP695wt (membranes, carbonate extraction)
Protocol: Broken cell assays were performed with slight modifications from the previous studies. The membrane derived from the H4 neuroglioma cells overexpressing APP695wt were prepared by carbonate extraction and incubated at 37 °C for 2 h with CA at various concentrations. Aβ levels were quantified by sandwich ELISAs. For Aβ and AICD spectra, the recombinant C100Flag proteins were overexpressed and purified from Escherichia coli BL21 using a HiTrap Q-column (GE Life Science, Little Chalfont, U.K.). The membrane containing γ-secretase was isolated from the CHO S-1 cell line using sodium carbonate (100 mM, pH 11.0). For the in vitro γ-secretase assay, C100Flag recombinant protein at 25 μM was incubated with the membrane (100 μg/mL) in the presence of CA (20 μM) and DMSO in 150 mM sodium citrate buffer (pH 6.8) containing complete protease inhibitor (Roche, Indianapolis, IN) for 2 h at 37 °C.
as §1

[4] = Cricetulus griseus, CHO-2B7, 16 h, lowering Aβ42, CHO-2B7 cells, 16 h, ELISA
[5] = lowering Aβ42, CHO-2B7 cells, 16 h, ELISA
[6] = Cricetulus griseus, lowering Aβ42, CHO-2B7 cells, 16 h, ELISA
[7] = Cricetulus griseus, lowering Aβ42, CHO-2B7 cells, approximate value

CC(CCCC(C)C1CCC2C3C(O)CC4=CC(=O)CCC4(C)C3CCC12C)C(=O)O (stereo not drawn) [7α-OH-4-CA, 7α-hydroxy-4-oxo-cholestenoic acid]
EC50 [1, 4]: 4150 nM | GSM activity [1]: demonstrated GSM activity

CC(CCCC(C)C1CCC2C3C(O)C=C4CC(O)CCC4(C)C3CCC12C)C(=O)O (stereo not drawn) [7α-OH-CA, 7α-hydroxy-cholestenoic acid]
EC50 [1, 4]: 970 nM | GSM activity [1]: demonstrated GSM activity

C[C@@H](CO)CCC[C@@H](C)[C@H]1CC[C@H]2[C@@H]3CC=C4C[C@@H](O)CC[C@]4(C)[C@H]3CC[C@]12C [27-OHC, 27-hydroxycholesterol]
GSM activity [1]: inactive | Aβ42 EC50 [1, 5]: could not be determined

C[C@H](CCC(=O)O)[C@H]1CC[C@H]2[C@@H]3CC[C@@H]4CCCC[C@]4(C)[C@H]3CC[C@]12C [Cmpd 1, 5β-Cholanic acid]
EC50 (Aβ42; decreasing Aβ42): ~5.7 µM | EC50 (Aβ42; decreasing Aβ42, listed as 5β-cholanic acid): 5.7 µM

C[C@H](CCC[C@H](C)C(=O)O)[C@H]1CC[C@H]2[C@@H]3CC=C4C[C@@H](O)CC[C@]4(C)[C@H]3CC[C@]12C [Cmpd 2b, 25-(S)-CA]
fold less potent than CA 2a (Aβ42 EC50) [1]: about 2 fold | EC50 [1, 5]: 501 nM

O=C(O)[C@H](CC1CCC1)c1cc(Cl)c(OCC(F)(F)F)c(-c2ccc(C(F)(F)F)cc2)c1 [Cmpd 3, (R)-2-(5-chloro-6-(2,2,2-trifluoroethoxy)-4’-(trifluoromethyl)biphenyl-3-yl)-3-cyclobutylpropanoic acid]
EC50 (Aβ42; GSM activity, ref the previous literature): 0.067 µM

CC(C)CC(c1ccc(Cl)cc1)N1CC[C@@H](CC(=O)O)C[C@H]1c1ccc(C(F)(F)F)cc1 (stereo partly drawn) [Cmpd 4, reference compound]
EC50 [1, 4]: 92 nM | brain Aβ levels [2]: expected Aβ modulation | mAβ38 level ([3]; 1 μM): increased | mAβ42 level ([3]; 1 μM): decreased

C[C@H](CCCC(=O)O)[C@H]1CC[C@H]2[C@@H]3CC=C4C[C@@H](O[Si](C)(C)C(C)(C)C)CC[C@]4(C)[C@H]3CC[C@]12C [Cmpd 5]
EC50 [1, 6]: 1780 nM | EC50 [1, 7]: ~2000 nM

C[C@H](CCCC(=O)O)[C@H]1CC[C@H]2[C@@H]3CC=C4C[C@@H](O)CC[C@]4(C)[C@H]3CC[C@]12C [Cmpd 6]
EC50 [1, 6]: 1960 nM | EC50 [1, 7]: ~2000 nM

CC(CCCC(C)C1CCC2C3CC=C4CC(F)CCC4(C)C3CCC12C)C(=O)O (stereo not drawn) [Cmpd 12]
EC50 [1, 5]: 8910 nM

CC(CCC[C@@H](C)[C@H]1CC[C@H]2[C@@H]3CC=C4CCCC[C@]4(C)[C@H]3CC[C@]12C)C(=O)O (stereo partly drawn) [Cmpd 13, 3-deoxy-CA]
fold less potent than CA 2a (Aβ42 EC50) [1]: approximately 3 fold | EC50 [1, 5]: 670 nM

C[C@H](NC(=O)Cc1cc(F)cc(F)c1)C(=O)N[C@H]1N=C(c2ccccc2)c2ccccc2N(C)C1=O [Cmpd E, reference compound]
overall Aβ production [3]: decreased | decrease of total Aβ production (γ-secretase): 77% | decrease of Aβ42 production (γ-secretase; CA at 150 μM): 91%

C[C@H](CCC(=O)O)[C@H]1CC[C@H]2[C@@H]3CC[C@@H]4C[C@H](O)CC[C@]4(C)[C@H]3CC[C@]12C [lithocholic acid]
GSM activity (Aβ42): GSMs

C[C@H](CCC(=O)O)[C@H]1CC[C@H]2[C@@H]3[C@@H](O)C[C@@H]4C[C@H](O)CC[C@]4(C)[C@H]3C[C@H](O)[C@]12C [ursocholic acid]
GSM activity (Aβ42): GSMs
